{"source": "patent US7129218B2", "about": "“Use of rhamnolipids in wound healing, treatment and prevention of gum disease and periodontal regeneration” (Paradigm Biomedical, Inc., priority 1999, dated 2006)", "key": {"[1]": {"system": "neonatal human keratinocyte cells", "experiment": "Caspase detection in neonatal human keratinocyte cells in KGM (serum free) medium", "assay_type": "cell-based", "protocol": "The procedure for caspase detection in neonatal human keratinocyte cells in KGM* (serum free) medium treated With BAC-3 using fluorescence spectroscopy\nThe same procedure as described for fibroblasts except different growth conditions were used (NHK97-45 passage #3 cell line was used). Neonatal human keratinocytes were without the presence of serum (KGM medium). Prior to treatment with BAC-3, passage #3 cells were grown in KGM medium for 7 days with one medium change (until 80% confluent). For preparing positive apoptosis control, plates were irradiated with UVB light for 66 seconds (792 J/m^2).\nCells, at 80% confluence, were administered BAC-3 in KGM at 50 μg/ml, 10 μg/ml, 1 μg/ml and 0.5 μg/ml concentrations. Medium was replaced every two days over the period of 6 days. On day 3, positive apoptosis control was established by irradiating cells with 792 J/m^2 UVB light and incubating them with 1 μg/ml FAS antibody. BAC-3 treated and control cells were harvested and cell densities were adjusted to 1×10^6 cells per ml with FM. 300 μl cell aliquots were labeled with FAM-VAD-FMK, fluorescent-tagged, irreversible caspase inhibitor. Unlabelled inhibitor was washed away with buffer and 100 μl aliquots were read at 485 nm excitation and 535 nm emission with fluorescence detector. Error bars indicate standard deviations."}, "burn wounds": {"system": "burn wounds", "experiment": "Burn wounds, 15% body surface, treatment started 50 days after burning (rats)", "assay_type": "in vivo, Sprague-Dawley rats", "settings": "15% burn, open wounds after 50 days placebo; 1% BAC-3 ointment, tapering schedule", "excerpt": "The wound surface areas tested were of two different sizes. One size to 7% of the body surface, which enables one to compare the rate of wound healing with different percentage of BAC-3 and the other size to 15% of the body surface, which is a sufficient size so that healing could not occur by contraction alone. On the other hand, the total wound surface area should not cause major systematic problems. The latter can be concluded from undisturbed weight gain of the animals. The standard animal burn was performed by techniques and device described by Walker. The burning devices were prepared using a model device ordered from U.S. Army Surgical Research Unit, Experimental Surgery, Army Medical Center, Fort Sam Houston, Tex. 78234. The devices had apertures which enabled exposure of 7% and 15% of the total rat skin surface. The surface of the skin was measured for every animal using Mech's formula: A=kW^2/3; A=surface area in cm^2; W=body weight in grams; k=10.\nMethod of burning. Each animal was anesthetized with sodium pentobarbital administered i/p (5 mg/25 g). (Producer: Veterinary Laboratory Inc. Lenexa, Kans.). The hair over the dorsum was clipped with animal clippers. The animal was placed supine in the burning device and the extremities were tied; the malleable retractor was placed over the animal and secured snugly with plastic straps. […]"}, "incision wounds": {"system": "incision wounds", "experiment": "Tensile strength of incision wounds (rats)", "assay_type": "in vivo, Sprague-Dawley rats", "settings": "0.1% BAC-3; 21 days after wounding; p<0.05 by ANOVA; FIG. 3", "protocol": "The wounding of animals was performed according to the Protocol for Animal Use and Care at the University of California-Davis (hereafter UC-Davis). The entire animal protocol required 70 Sprague-Dawley rats: 30 rats for incision wounds and 40 rats for burn wounds. Among them 36 rats were burned over 7% of their skin and 4 rats were burned over 15% of their skin. Incision wounds of whole skin and burn wounds were treated topically with 2 test doses of the pharmaceutical preparation of di-rhamnolipid BAC-3. Each dose contained a). 1%, and 0.1% of active di-rhamnolipid (BAC-3) in eucerin (eucerin=71.5 g Vaselinum album (Producer: D.E.A. Hamburg); 23.8 g Lanolinum (Producer I.O.I. Hamburg); 4.7 g Cholesterin (Producer: Solvay, Wiena, Austria); Water Number: 320); or b). 1%; 0.1% active rhamnolipid (BAC-3) with antiseptic (chlorhexidine hydrochloride-PLIVA-Zagreb). Eucerin with BAC-3 was administrated twice daily during healing. The same experiment had one control group without the treatment, and one control group which was treated with ointment+1% chlorhexidine hydrochloride. […]\nTensile Strength Determination. […] The tensile strength of healthy skin was measured in killed animals from each group.\nEffect of BAC-3 on Tensile Strength of Incision Wounds (FIG. 3) with and without chlorhexidine hydrochloride. The tensile strength of incision wounds was measured 21 days after wounding. […]"}}}
{"smiles": "CCCCCCCC(CC(=O)O)OC(=O)CC(CCCCCCC)OC1OC(C)C(O)C(O)C1OC1OC(C)C(O)C(O)C1O", "note": "[BAC-3, (α-L-rhamnopyranosyl-(1,2)-α-L-rhamnopyranosyl)-3-hyroxydecanoyl-3-hydroxydecanoic acid]", "values": [{"measurement": "optimal concentration for inducing apoptosis (caspase activity peak)", "setting": "[1]; keratinocytes in KGM serum free, 6 days, tested 50, 10, 1 and 0.5 μg/ml", "value": 1, "unit": "µg/mL"}, {"measurement": "mechanism of cell death at higher concentrations", "setting": "[1]; keratinocytes in KGM, higher concentrations of BAC-3 (detergent effect)", "value": "cell necrosis"}, {"measurement": "time to whole epithelization in all animals", "setting": "burn wounds", "value": 30, "unit": "days"}, {"measurement": "tensile strength of incision wounds vs corresponding vehicle", "setting": "incision wounds", "value": "significantly lower"}]}
